Measurements taken from patent US20070032513A1, “Quinazoline derivatives” (priority 2003, published 2007).

Key:
EGFR tyrosine kinase = molecular target: T1, EGFR tyrosine kinase (Homo sapiens, UniProt P00533); assay: Protein tyrosine kinase phosphorylation assay, Test (a); assay type: biochemical; conditions: recombinant intracellular fragment, ATP at Km concentration; read-out: IC50 (nM) Test (a) (Inhibition of EGFR tyrosine kinase protein phosphorylation)
T1 construct: Recombinant intracellular fragments of EGFR, erbB2 and erbB4; made in house; host or cells: baculovirus/Sf21 insect cells (cleared lysate used)
Protocol: This test measures the ability of a test compound to inhibit the phosphorylation of a tyrosine containing polypeptide substrate by EGFR, erbB2 or erbB4 tyrosine kinase enzyme.
Recombinant intracellular fragments of EGFR, erbB2 and erbB4 (accession numbers X00588, X03363 and L07868 respectively) were cloned and expressed in the baculovirus/Sf21 system. Lysates were prepared from these cells by treatment with ice-cold lysis buffer (20 mM N-2-hydroxyethylpiperizine-N′-2-ethanesulfonic acid (HEPES) pH7.5, 150 mM NaCl, 10% glycerol, 1% Triton X-100, 1.5 mM MgCl2, 1 mM ethylene glycol-bis(β-aminoethyl ether) N′,N′,N′,N′-tetraacetic acid (EGTA), plus protease inhibitors and then cleared by centrifugation.
Constitutive kinase activity of these recombinant proteins was determined by their ability to phosphorylate a synthetic peptide (made up of a random co-polymer of Glutamic Acid, Alanine and Tyrosine in the ratio of 6:3:1). Specifically, Maxisorb™ 96-well immunoplates were coated with synthetic peptide (0.2 μg of peptide in a 200 μl phosphate buffered saline (PBS) solution and incubated at 4° C. overnight). Plates were washed in 50 mM HEPES pH 7.4 at room temperature to remove any excess unbound synthetic peptide. EGFR or erbB2 activities were assessed by incubation in peptide coated plates for 20 minutes at room temperature in 100 mM HEPES pH 7.4 at room temperature, adenosine trisphosphate (ATP) at Km concentration for the respective enzyme, 10 mM MnCl2, 0.1 mM Na3VO4, 0.2 mM DL-dithiothreitol (DIT), 0.1% Triton X-100 with test compound in DMSO (final concentration of 2.5%). Reactions were terminated by the removal of the liquid components of the assay followed by washing of the plates with PBS-T (phosphate buffered saline with 0.5% Tween 20).
The immobilised phospho-peptide product of the reaction was detected by immunological methods. Firstly, plates were incubated for 90 minutes at room temperature with anti-phosphotyrosine primary antibodies that were raised in the mouse (4G10 from Upstate Biotechnology). Following extensive washing, plates were treated with Horseradish Peroxidase (HRP) conjugated sheep anti-mouse secondary antibody (NXA931 from Amersham) for 60 minutes at room temperature. After further washing, HRP activity in each well of the plate was measured colorimetrically using 22′-Azino-di-[3-ethylbenzthiazoline sulfonate (6)] diammonium salt crystals (ABTS™ from Roche) as a substrate.
Quantification of colour development and thus enzyme activity was achieved by the measurement of absorbance at 405 nm on a Molecular Devices ThermoMax microplate reader. Kinase inhibition for a given compound was expressed as an IC50 value. […] The range of phosphorylation was calculated from the positive (vehicle plus ATP) and negative (vehicle minus ATP) control values.

KB cells = assay: EGFR driven KB cell proliferation assay, Test (b); assay type: cell-based; conditions: Homo sapiens, 96 h, EGF 1 ng/ml, incubation for 4 days, MTT
Protocol: This assay measures the ability of a test compound to inhibit the proliferation of KB cells (human naso-pharangeal carcinoma obtained from the American Type Culture Collection (ATCC)).
KB cells were cultured in Dulbecco's modified Eagle's medium (DMEM) containing 10% foetal calf serum, 2 mM glutamine and non-essential amino acids at 37° C. in a 7.5% CO2 air incubator. Cells were harvested from the stock flasks using Trypsin/ethylaminediaminetetraacetic acid EDTA). Cell density was measured using a haemocytometer and viability was calculated using trypan blue solution before being seeded at a density of 1.25×10^3 cells per well of a 96 well plate in DMEM containing 2.5% charcoal stripped serum, 1 mM glutamine and non-essential amino acids at 37° C. in 7.5% CO2 and allowed to settle for 4 hours.
Following adhesion to the plate, the cells are treated with or without EGF (final concentration of 1 ng/ml) and with or without compound at a range of concentrations in dimethylsulfoxide (DMSO) (0.1% final) before incubation for 4 days. Following the incubation period, cell numbers were determined by addition of 50 μl of 3-(4,5-Dimethylthiazol-2-yl)-2,5-diphenyltetrazolium bromide (MTT) (stock 5 mg/ml) for 2 hours. MIT solution was then tipped off, the plate gently tapped dry and the cells dissolved upon the addition of 100 μl of DMSO.
Absorbance of the solubilised cells was read at 540 nm using a Molecular Devices ThermoMax microplate reader. Inhibition of proliferation was expressed as an IC50 value. […] The range of proliferation was calculated from the positive (vehicle plus EGF) and negative (vehicle minus EGF) control values.

T1 sequence (P00533 669-1210 limits assumed): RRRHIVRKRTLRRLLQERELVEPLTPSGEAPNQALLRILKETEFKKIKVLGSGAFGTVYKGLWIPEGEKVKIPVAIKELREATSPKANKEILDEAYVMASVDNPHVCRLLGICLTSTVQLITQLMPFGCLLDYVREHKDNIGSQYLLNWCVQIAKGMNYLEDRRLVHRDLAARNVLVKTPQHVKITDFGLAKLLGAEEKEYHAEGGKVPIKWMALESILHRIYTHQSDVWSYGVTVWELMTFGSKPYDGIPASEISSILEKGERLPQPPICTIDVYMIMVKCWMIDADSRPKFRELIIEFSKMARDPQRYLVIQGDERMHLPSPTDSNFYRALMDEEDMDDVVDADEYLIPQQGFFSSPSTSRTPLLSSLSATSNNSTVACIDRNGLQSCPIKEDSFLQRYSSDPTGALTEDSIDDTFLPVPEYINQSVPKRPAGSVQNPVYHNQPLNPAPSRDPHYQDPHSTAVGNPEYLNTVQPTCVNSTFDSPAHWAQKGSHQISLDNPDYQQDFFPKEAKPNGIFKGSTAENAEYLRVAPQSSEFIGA

Compound	IC50 (EGFR tyrosine kinase)	IC50 (KB cells)	melting point
COc1cc2c(Nc3cccc(Cl)c3F)ncnc2cc1OC1CN(C(=O)[C@@H](C)O)C1 [Example 4, (2R)-1-[3-({4-[3-Chloro-2-fluoroanilino]-6-methoxyquinazolin-7-yl}oxy)azetidin-1-yl]-1-oxopropan-2-ol]	8 nM	48 nM	–
COc1cc2c(Nc3cccc(Cl)c3F)ncnc2cc1OC1CN(C(=O)[C@H](C)O)C1 [Example 3]	17 nM	71 nM	–
COc1cc2c(Nc3cccc(Cl)c3F)ncnc2cc1OC1CCN(C(=O)C2CCC(=O)N2)CC1 (stereo not drawn) [6[5], 5-{[4-({4-[3-chloro-2-fluoroanilino]-6-methoxyquinazolin-7-yl}oxy)piperidin-1-yl]carbonyl}pyrrolidin-2-one]	41 nM	397 nM	–
COCC(=O)N1CC[C@@H](Oc2cc3ncnc(Nc4cccc(Cl)c4F)c3cc2OC)C1 [Example 5, N-(3-Chloro-2-fluorophenyl)-6-methoxy-7-{[(3R)-1-(methoxyacetyl)pyrrolidin-3-yl]oxy}quinazolin-4-amine]	217 nM	119 nM	73 to 77 °C
